Laboratory results published in PMC6934184, “Selective DNA-PKcs inhibition extends the therapeutic index of localized radiotherapy and chemotherapy” (The Journal of Clinical Investigation, 2019).

Target: T1, TESK2 (Homo sapiens, UniProt Q96S53)
T1 construct: purchased Thermo Fisher Scientific (Life Technologies) SelectScreen
Assay: SelectScreen LanthaScreen
Type: binding
Conditions: read-out: % displacement
How it was run: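 NU5455 was profiled across the SelectScreen Broad panel of kinase activity and binding assays. Z'LYTE reactions such as CSF1R ran at apparent Km ATP, while the Adapta CAMK1 assay used ATP listed as 10. Values are given as percent.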

T1 sequence (Q96S53 whole entry): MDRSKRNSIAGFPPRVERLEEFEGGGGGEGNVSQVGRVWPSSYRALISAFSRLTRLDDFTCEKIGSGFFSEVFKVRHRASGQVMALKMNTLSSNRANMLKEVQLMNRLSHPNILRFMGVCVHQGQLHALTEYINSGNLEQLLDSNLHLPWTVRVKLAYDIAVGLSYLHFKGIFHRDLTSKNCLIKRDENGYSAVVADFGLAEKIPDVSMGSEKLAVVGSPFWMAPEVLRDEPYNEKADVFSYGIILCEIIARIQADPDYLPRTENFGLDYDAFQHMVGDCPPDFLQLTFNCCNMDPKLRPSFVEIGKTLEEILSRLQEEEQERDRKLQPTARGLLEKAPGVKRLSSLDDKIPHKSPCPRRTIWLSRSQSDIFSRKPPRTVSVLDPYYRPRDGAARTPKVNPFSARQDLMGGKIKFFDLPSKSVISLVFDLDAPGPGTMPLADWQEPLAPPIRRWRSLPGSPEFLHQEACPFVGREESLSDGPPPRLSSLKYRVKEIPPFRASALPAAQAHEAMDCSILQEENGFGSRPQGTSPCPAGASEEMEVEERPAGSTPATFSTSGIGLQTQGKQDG

For `CN(C(=O)CN1CCOCC1)c1ccc2sc3c(-c4cccc5c(=O)cc(N6CC7CCC(C6)O7)oc45)cccc3c2c1` [NU5455], the inhibition at 1 µM was 2.7%.
